From patent US5512671A, “Ether lipid-nucleoside covalent conjugates” (Wake Forest University, priority 1995, dated 1996)

Experiments:
[1] = tested on: HIV-1; test: Plaque assay: inhibition of HIV-1 syncytial plaque formation in CEM-SS cells (Example 15); format: cell-based, human immunodeficiency virus type 1 (HIV-1); conditions: for IC50: Human immunodeficiency virus 1, CEM-SS, 120 h, read-out: Inhibitory Concentration50 for HIV-1 Plaque Formation; for Differential Selectivity: ratio IC50 for cytotoxicity / IC50 for HIV1 plaque formation
From the text: Anti-HIV1 Activity of Lipid-Nucleoside Conjugates. […] In brief, CEM-SS cell monolayers were infected with HIV-1. […] Plaques were counted at five days after infection. In this assay HIV-1 syncytial plaques are seen as large, multicellular foci (10 to 25 nuclei/syncytium) that appear either brown and granular or clear. Silnce the number of HIV-1 syncytial plaques correlates with reverse transcriptase (RT) and p24 core antigen activity in the HIV-1 infected cell overlay fluids, the syncytial plaque assay can be used to quantify the amount of infectious virus. […] The activity of p24 core antigen induced by HIV-1 infection of CEM-SS cells was measured spectrophotometrically using the commercial Coulter EIA.

[2] = in vitro; conditions: human, cem-ss cells
[3] = tested on: CEM-SS cells; test: CEM-SS cell growth, 3H-Tdr pulse label DNA synthesis (Example 23); format: cell-based; conditions: Homo sapiens, 48 hours at 37° C., then 3H-Tdr 8 hours
[4] = tested on: HIV-1; test: HIV-1 plaque formation in CEM-SS cells (Example 23); format: cell-based; conditions: for IC50: read-out: IC50 HIV-1 Plaque Formation; for D.S. (Differential selectivity): average IC50 for CEMSS cell growth / average IC50 for HIV1 plaque formation
Method: Anti-HIV1 Activity of Lipid-Nucleoside Conjugates. CEM-SS cells were seeded (50,000 cells/ml RPMI-1640 growth medium) as a monolayer in 96-well dishes, innoculated with 50 to 100 plaque forming units of HIV-1 and overlaid with serial dilutions of lipid-nucleoside conjugate in RPHI-1640 growth medium. Plaques were counted after five days incubation at 37° C. to determine the 50% inhibitory concentration.

[5] = tested on: HIV-1; test: HIV-1 induced RT in persistently infected monocyte/macrophage (U1) cells; format: cell-based; conditions: control 79,328 DPM = 100
From the text: (§1) See C. Perno et al., J. Exp. Med. 168, 1111 (1984).

[6] = tested on: HIV-1; test: HIV-1 induced p24 core antigen synthesis in persistently infected monocyte/macrophage (U1) cells; format: cell-based; conditions: control 94 = 100
From the text: as §1

[7] = tested on: HIV-1; test: Infectious HIV-1 production (PFU) in persistently infected monocyte/macrophage (U1) cells; format: cell-based
From the text: as §1

[8] = tested on: CEM-SS cells; test: Cell cytotoxicity (Example 15, Table 1); conditions: conjugate IC50 53.8 μM vs AZT IC50 5.6 μM
[9] = Human immunodeficiency virus 1, 120 h, CEM-SS cells, five days incubation at 37° C.

Row | SMILES | IC50 [1] [nM] | Differential Selectivity [1] | CC50 [2] [µM] | further results
1 | CCCCCCCCCCCCCCCCSCC(COP(=O)(O)OC[C@H]1O[C@@H](n2cc(C)c(=O)[nH]c2=O)C[C@@H]1N=[N+]=[N-])OC (stereo partly drawn) [Compound C, 3'azido-3'-deoxythymidine-5'-monophosphate-D,L-3-hexadecylthio-2-methoxypropane] | 20 ± 10 | 1465 | 29.2 ± 5.7 | –
2 | CCCCCCCCCCCCCCCCOCC(COP(=O)(O)OP(=O)(O)OCC1OC(n2cc(C)c(=O)[nH]c2=O)CC1N=[N+]=[N-])OCC [A, 3'-Azido-3'-deoxythymidine-5'-diphosphate-D,L-3-hexadecyloxy-2-ethoxypropane] | – | – | – | IC50 [3]: > 100 µM
3 | CCCCCCCCCCCCCCCCOCC(COP(=O)([O-])OC(CC(=O)OC[C@H]1O[C@@H](n2cc(C)c(=O)[nH]c2=O)C[C@@H]1N=[N+]=[N-])C[N+](C)(C)C)OCC (stereo partly drawn) [Compound AA, 3'-Azido-3'-deoxythymidine-5'-butyrate-γ-N,N,N-trimethyl-ammonium-β-(1-phospho-2-ethoxy-3-hexadecyloxypropane)] | – | – | – | IC50 [4, 9]: 4 nM; D.S. (Differential selectivity) [4]: 3375
4 | CCCCCCCCCCCCCCCCCC(=O)NCC(COP(=O)(O)OC[C@@H]1CC[C@H](n2cnc3c(=O)[nH]cnc32)O1)OCC (stereo partly drawn) [Compound D, 2,3,-dideoxyinosine-5'-monophosphate-D,L-3-octadecanamido-2-ethoxypropane] | 1560 ± 800 | > 64 | > 100 | –
5 | CCCCCCCCCCCCCCCCOCC(CP(=O)(O)OC[C@H]1O[C@@H](n2cc(C)c(=O)[nH]c2=O)C[C@@H]1N=[N+]=[N-])OC (stereo partly drawn) [Compound E, 3'-Azido-3'-deoxythymidine-5'-phosphono-D,L-3-hexadecyloxy-2-methoxypropane] | 20 ± 10 | 1260 | 25.2 ± 1.1 | –
6 | CCCCCCCCCCCCCCCCCC(=O)NCC(COP(=O)(O)OP(=O)(O)OC[C@H]1O[C@@H](n2cc(C)c(=O)[nH]c2=O)C[C@@H]1N=[N+]=[N-])OCC (stereo partly drawn) [Compound H, 3'-Azido-3-deoxythymidine-5'-diphosphate-D,L-3-octadecanamido-2-ethoxypropane] | – | – | – | IC50 [4, 9]: 11 nM; D.S. (Differential selectivity) [4]: 600; IC50 [3]: 6.6 µM
7 | CCCCCCCCCCCCCCCCCC(=O)NCC(COP(=O)([O-])OC(CC(=O)OC[C@H]1O[C@@H](n2cc(C)c(=O)[nH]c2=O)C[C@@H]1N=[N+]=[N-])C[N+](C)(C)C)OCC (stereo partly drawn) [BB, 3'-Azido-3-deoxythymidine-5'-butyrate-γ-N,N,N-trimethyl-ammonium-β-(1-phospho-2-ethoxy-3octadecanamidopropane)] | – | – | – | IC50 [4, 9]: 40 nM; D.S. (Differential selectivity) [4]: 342
8 | CCCCCCCCCCCCCCCCOCC(COP(=O)(O)OC[C@H]1O[C@@H](n2cc(C)c(=O)[nH]c2=O)C[C@@H]1N=[N+]=[N-])OCC (stereo partly drawn) [Compound B, 3'-azido-3'deoxythymidine-5'-monophosphate-D,L-3-hexadecyloxy-2-ethoxypropane] | 30 ± 20 | 1167 | 35 ± 2.1 | –
9 | O=c1[nH]cnc2c1ncn2[C@H]1CC[C@@H](CO)O1 [DDI, dideoxyinosine, reference compound] | 1700 | – | > 100 | –
10 | Cc1cn([C@H]2C[C@H](N=[N+]=[N-])[C@@H](CO)O2)c(=O)[nH]c1=O [AZT, 3'-azido-3'-deoxythymidine] | 4 ± 1 | – | 5.6 | RT DPM, Percent of Control [5]: 90% of Control; p24 core Ag, Percent of Control [6]: 101% of Control; inhibition of infectious HIV-1 production [7]: 13%; PFU, Percent of Control ([7]; control 750 PFU = 100): 87% of Control; IC50 ([4]; Human immunodeficiency virus 1, CEM-SS, 120 h): 4 nM
11 | CCCCCCCCCCCCCCCCCC(=O)NCC(COP(=O)(O)OC[C@H]1O[C@@H](n2cc(C)c(=O)[nH]c2=O)C[C@@H]1N=[N+]=[N-])OCC (some centres unmarked) [A] | 30 ± 20 | – | 53.8 ± 7.8 | –
12 | CCCCCCCCCCCCCCCCCC(=O)NCC(COP(=O)(O)OC[C@H]1O[C@@H](n2cc(C)c(=O)[nH]c2=O)C[C@@H]1N=[N+]=[N-])OCC (stereo partly drawn) [Compound A, 3,-azido-3'-deoxythymidine-5'-monophosphate-D,L-3-octadecanamido-2-ethoxypropane] | – | – | – | decrease in cell cytotoxicity compared to AZT [8]: about ten-fold
